Measured values from ChEMBL document CHEMBL6153109, “Switching Roles─Exploring Concentration-Dependent Agonistic versus Antagonistic Behavior of Integrin Ligands” (J Med Chem, 2025).
Calls of active or inactive are those of the source. The rule behind the calls is not given here.

Key:
[1] = Drug uptake in human OV-MZ-6 cells overexpressing integrin […] at 1 uM measured after 300 mins by Hoechst 33342 staining based fluorescence analysis; assay type: ADME, cell-based; conditions: ov-mz-6, 5 h
[2] = Drug localization in cell membrane of human M21 cells overexpressing integrin alphaVbeta3 at 1 uM measured within 3 mins by CellMask green staining based fluorescence analysis; assay type: ADME, cell membranes; conditions: m21, 0.05 h
[3] = Drug uptake in human M21 cells overexpressing integrin alphaVbeta3 at 1 uM measured at 60 to 300 mins by Hoechst 33342 staining based fluorescence analysis; assay type: ADME, cell-based; conditions: m21, 1 µM, time 60-300 min
[4] = Drug localization in cell membrane of human M21 cells overexpressing integrin alphaVbeta3 at 1 uM measured at 30 mins by CellMask green staining based fluorescence analysis; assay type: ADME, cell membranes; conditions: m21, 0.5 h
Integrin alpha-5/beta-1 [5] = molecular target: T1, Integrin alpha-5/beta-1 (Homo sapiens, UniProt P05556+P08648); assay: Agonist activity at integrin alpha5beta1 in human OV-MZ-6 cells assessed as increase in p-ERK1/2 expression at 1 uM incubated for 24 hrs by Western blot analysis; assay type: cell-based
Integrin alpha-V/beta-3 [6] = molecular target: T2, Integrin alpha-V/beta-3 (Homo sapiens, UniProt P05106+P06756); assay: Agonist activity at integrin alphaVbeta3 in human M21 cells assessed as increase in p-FAK expression at 1 uM incubated for 24 hrs by Western blot analysis; assay type: cell-based
OV-MZ-6 [7] = assay: Inhibition of cell migration in human OV-MZ-6 cells expressing integrin alpha5beta1 assessed as delay in wound gap closure at 1 to 1000 nM measured immediately by wound scratch assay; assay type: functional, cell-based; conditions: dose 1-1000 nM
Integrin alpha-5/beta-1 [8] = molecular target: T1, Integrin alpha-5/beta-1; assay: Agonist activity at integrin alpha5beta1 in human OV-MZ-6 cells assessed as increase in FAK expression at 1 uM incubated for 24 hrs by Western blot analysis; assay type: cell-based
Integrin alpha-V/beta-3 [9] = molecular target: T2, Integrin alpha-V/beta-3; assay: Agonist activity at integrin alphaVbeta3 in human M21 cells assessed as increase in ERK1/2 expression at 1 uM incubated for 24 hrs by Western blot analysis; assay type: cell-based
HN [10] = assay: Effect on cell migration in human HN cells expressing integrin alphaVbeta6 at 1 to 1000 nM measured after 9 to 24 hrs by wound scratch assay; assay type: functional, cell-based; conditions: dose 1-1000 nM, time 9-24 hrs
Integrin alpha-5/beta-1 [11] = molecular target: T1, Integrin alpha-5/beta-1; assay: Agonist activity at integrin alpha5beta1 in human OV-MZ-6 cells assessed as increase in p-FAK expression at 1 uM incubated for 24 hrs by Western blot analysis; assay type: cell-based
Integrin alpha-V/beta-6 [12] = molecular target: T3, Integrin alpha-V/beta-6 (Homo sapiens, UniProt P06756+P18564); assay: Competitive binding affinity to human Integrin alphaVbeta6 incubated for 1 hrs in presence of […] of TGF-beta1 by ELISA based spectrophotometric analysis; assay type: protein-complex assay
Integrin alpha-V/beta-6 [13] = molecular target: T3, Integrin alpha-V/beta-6; assay: Agonist activity at integrin alphaVbeta6 in human HN cells assessed as increase in FAK expression at 1 to 1000 nM measured within 60 mins by Western blot analysis; assay type: cell-based; conditions: filed as agonist, dose 1-1000 nM
Integrin alpha-V/beta-6 [14] = molecular target: T3, Integrin alpha-V/beta-6; assay: Agonist activity at integrin alphaVbeta6 in human HN cells assessed as fold increase in p-FAK expression at 1 uM measured within 30 mins by Western blot analysis (reference value: 1); assay type: cell-based; conditions: filed as agonist
OV-MZ-6 [15] = assay: Inhibition of cell migration in human OV-MZ-6 cells expressing integrin alpha5beta1 assessed as delay in wound gap closure at 1 to 1000 nM measured after 72 hrs by wound scratch assay; assay type: functional, cell-based; conditions: dose 1-1000 nM
Integrin alpha-5/beta-1 [16] = molecular target: T1, Integrin alpha-5/beta-1; assay: Agonist activity at integrin alpha5beta1 in human OV-MZ-6 cells assessed as increase in FAK expression at 1 to 1000 nM measured after 5 to 60 mins by Western blot analysis; assay type: cell-based; conditions: dose 1-1000 nM, time 5-60 min
Integrin alpha-V/beta-3 [17] = molecular target: T2, Integrin alpha-V/beta-3; assay: Competitive binding affinity to human Integrin alphaVbeta3 incubated for 1 hrs in presence of vitronectin by ELISA based spectrophotometric analysis; assay type: protein-complex assay
HN [18] = assay: Effect on cell migration in human HN cells expressing alphaVbeta6 at 1 to 1000 nM measured after 48 hrs by microscopic imaging analysis; assay type: functional, cell-based; conditions: dose 1-1000 nM
Integrin alpha-V/beta-6 [19] = molecular target: T3, Integrin alpha-V/beta-6; assay: Agonist activity at integrin alphaVbeta6 in human HN cells assessed as fold increase in p-FAK expression at 1 nM measured within 30 mins by Western blot analysis (reference value: 1); assay type: cell-based; conditions: filed as agonist
Integrin alpha-5/beta-1 [20] = molecular target: T1, Integrin alpha-5/beta-1; assay: Agonist activity at integrin alpha5beta1 in human OV-MZ-6 cells assessed as fold increase in p-FAK expression at 1 nM measured after 5 to 60 mins by Western blot analysis (reference value: 1); assay type: cell-based; conditions: filed as agonist, time 5-60 min
Integrin alpha-V/beta-3 [21] = molecular target: T2, Integrin alpha-V/beta-3; assay: Agonist activity at integrin alphaVbeta3 in human M21 cells assessed as increase in FAK expression at 1 uM incubated for 24 hrs by Western blot analysis; assay type: cell-based
Integrin alpha-V/beta-3 [22] = molecular target: T2, Integrin alpha-V/beta-3; assay: Agonist activity at integrin alphaVbeta3 in human M21 cells assessed as increase in p-ERK1/2 expression at 1 uM incubated for 24 hrs by Western blot analysis; assay type: cell-based
Integrin alpha-5/beta-1 [23] = molecular target: T1, Integrin alpha-5/beta-1; assay: Agonist activity at integrin alpha5beta1 in human OV-MZ-6 cells assessed as increase in ERK1/2 expression at 1 uM incubated for 24 hrs by Western blot analysis; assay type: cell-based
M21 [24] = assay: Inhibition of cell migration in human M21 cells expressing integrin alphaVbeta3 assessed as cell coverage at 1 uM measured within 72 hrs by wound scratch assay (reference value: 95 %); assay type: functional; design: scale not given: the % may be the effect or the level left
Integrin alpha-5/beta-1 [25] = molecular target: T1, Integrin alpha-5/beta-1; assay: Agonist activity at integrin alpha5beta1 in human OV-MZ-6 cells assessed as increase in FAK expression at 1 nM incubated for 5 to 60 mins by Western blot analysis; assay type: cell-based; conditions: filed as agonist, time 5-60 min
Integrin alpha-5/beta-1 [26] = molecular target: T1, Integrin alpha-5/beta-1; assay: Agonist activity at integrin alpha5beta1 in human OV-MZ-6 cells assessed as fold increase in p-FAK expression at 1 nM incubated for 5 mins by Western blot analysis (reference value: 1); assay type: cell-based; conditions: filed as agonist
Integrin alpha-5/beta-1 [27] = molecular target: T1, Integrin alpha-5/beta-1; assay: Agonist activity at integrin alpha5beta1 in human OV-MZ-6 cells assessed as fold increase in FAK expression at 1 uM incubated for 24 hrs by Western blot analysis (reference value: 1); assay type: cell-based; conditions: filed as agonist
Integrin alpha-5/beta-1 [28] = molecular target: T1, Integrin alpha-5/beta-1; assay: Agonist activity at integrin alpha5beta1 in human OV-MZ-6 cells assessed as fold increase in p-ERK1/2 expression at 1 uM incubated for 24 hrs by Western blot analysis; assay type: cell-based; conditions: filed as agonist
Integrin alpha-5/beta-1 [29] = molecular target: T1, Integrin alpha-5/beta-1; assay: Agonist activity at integrin alpha5beta1 in human OV-MZ-6 cells assessed as increase in p-FAK expression at 1 nM measured after 60 mins by Western blot analysis; assay type: cell-based
Integrin alpha-V/beta-3 [30] = molecular target: T2, Integrin alpha-V/beta-3; assay: Agonist activity at integrin alphaVbeta3 in human M21 cells assessed as increase in FAK expression at 1 uM incubated for 5 to 60 mins by Western blot analysis; assay type: cell-based; conditions: time 5-60 min
M21 [31] = assay: Inhibition of cell migration in human M21 cells expressing integrin alphaVbeta3 assessed as delay in wound gap closure at 1 nM measured after 9 to 72 hrs by wound scratch assay; assay type: functional, cell-based; conditions: time 9-72 hrs
Integrin alpha-V/beta-3 [32] = molecular target: T2, Integrin alpha-V/beta-3; assay: Agonist activity at integrin alphaVbeta3 in human M21 cells assessed as increase in p-FAK expression at 1 to 1000 nM incubated for 5 to 60 mins by Western blot analysis; assay type: cell-based; conditions: dose 1-1000 nM, time 5-60 min
M21 [33] = assay: Inhibition of cell adhesion in human M21 cells expressing integrin alphaVbeta3 at 1 uM measured after 48 hrs by microscopic imaging analysis; assay type: functional, cell-based
Integrin alpha-V/beta-3 [34] = molecular target: T2, Integrin alpha-V/beta-3; assay: Agonist activity at integrin alphaVbeta3 in human M21 cells assessed as increase in FAK expression at 1 nM incubated for 5 to 60 mins by Western blot analysis; assay type: cell-based; conditions: filed as agonist, time 5-60 min
Integrin alpha-V/beta-3 [35] = molecular target: T2, Integrin alpha-V/beta-3; assay: Agonist activity at integrin alphaVbeta3 in human M21 cells assessed as fold increase in FAK expression at 1 uM incubated for 24 hrs by Western blot analysis; assay type: cell-based; conditions: filed as agonist
M21 [36] = assay: Inhibition of cell adhesion in human M21 cells expressing integrin alphaVbeta3 at 1 nM measured after 48 hrs by microscopic imaging analysis; assay type: functional, cell-based
[37] = Drug uptake in human HN cells overexpressing integrin alphaVbeta6 at 1 uM measured at 60 to 300 mins by Hoechst 33342 staining based fluorescence analysis; assay type: ADME, cell-based; conditions: time 60-300 min
[38] = Drug uptake in human HN cells overexpressing integrin alphaVbeta6 at 1 uM measured within 3 mins by Hoechst 33342 staining based fluorescence analysis; assay type: ADME, cell-based; conditions: 0.05 h

COc1ccnc(NCCCOc2ccc(C[C@@H](CC(=O)O)NC(=O)c3ccc(OCCCNC(=O)CCCCCNC(=O)CCCCC[N+]4=C(/C=C/C=C/C=C5/N(C)c6ccc7ccccc7c6C5(C)C)C(C)(C)c5c4ccc4ccccc54)cc3)cc2)c1
Drug uptake [1]: Active
Drug uptake [2]: Active
Drug uptake [3]: Active
Drug uptake [4]: Active

CC(C)C[C@@H]1NC(=O)[C@H](CC(=O)O)NC(=O)CNC(=O)[C@H](CCCNC(=N)N)NC(=O)[C@H](Cc2ccccc2)NC(=O)[C@H](CCCCN)N(C)C(=O)[C@H]2CCCN2C(=O)[C@H](Cc2ccccc2)NC(=O)[C@H](C)NC1=O
Activity (Integrin alpha-5/beta-1 [5]): inactive
Activity (Integrin alpha-V/beta-3 [6]): inactive
inhibition (OV-MZ-6 [7]): Active
Activity (Integrin alpha-5/beta-1 [8]): inactive
Activity (Integrin alpha-V/beta-3 [9]): inactive
Activity (HN [10]): inactive
Activity (Integrin alpha-5/beta-1 [11]): inactive
IC50 (Integrin alpha-V/beta-6 [12]): 0.28 nM
Activity (Integrin alpha-V/beta-6 [13]): Active; Slight Increase Observed
fold change (FC) (Integrin alpha-V/beta-6 [14]): 6
inhibition (OV-MZ-6 [15]): inactive
Activity (Integrin alpha-5/beta-1 [16]): inactive
IC50 (Integrin alpha-V/beta-3 [17]): > 1000 nM
Activity (HN [18]): inactive
fold change (FC) (Integrin alpha-V/beta-6 [19]): 5
fold change (FC) (Integrin alpha-5/beta-1 [20]): 2.9
Activity (Integrin alpha-V/beta-3 [21]): inactive
Activity (Integrin alpha-V/beta-3 [22]): inactive
Activity (Integrin alpha-5/beta-1 [23]): inactive

C#CCCC(=O)NCCCOc1ccc(C(=O)N[C@H](CC(=O)O)Cc2ccc(OCCCNc3cc(OC)ccn3)cc2)cc1
Activity (M21 [24]): 80%
Activity (Integrin alpha-5/beta-1 [25]): Active; Slight Increase Observed
fold change (FC) (Integrin alpha-5/beta-1 [26]): 2
Activity (Integrin alpha-V/beta-3 [6]): inactive
fold change (FC) (Integrin alpha-5/beta-1 [27]): 1.7
fold change (FC) (Integrin alpha-5/beta-1 [28]): 2.4
Activity (Integrin alpha-5/beta-1 [29]): inactive
Activity (Integrin alpha-V/beta-3 [30]): inactive
inhibition (M21 [31]): inactive
inhibition (OV-MZ-6 [15]): Active
Activity (Integrin alpha-V/beta-3 [32]): inactive
inhibition (M21 [33]): Active
Activity (Integrin alpha-V/beta-3 [34]): Active
fold change (FC) (Integrin alpha-V/beta-3 [35]): 2
inhibition (M21 [36]): inactive

CC(C)C[C@@H]1NC(=O)[C@H](CC(=O)O)NC(=O)CNC(=O)[C@H](CCCNC(=N)N)NC(=O)[C@H](Cc2ccccc2)NC(=O)[C@H](CCCCNC(=O)CCCCCNC(=O)CCCCC[N+]2=C(/C=C/C=C/C=C3/N(C)c4ccc5ccccc5c4C3(C)C)C(C)(C)c3c2ccc2ccccc32)N(C)C(=O)[C@H]2CCCN2C(=O)[C@H](Cc2ccccc2)NC(=O)[C@H](C)NC1=O
Drug uptake [1]: Not_active
Drug uptake [37]: Active
Drug uptake [38]: Active
